Drawing on patent US7329657B2, “Indazolyl-substituted pyrroline compounds as kinase inhibitors” (Ortho-McNeil Pharmaceutical, Inc., priority 2000, dated 2008), this text covers IC50 for 26 molecules.

Common to all, as to assay type: biochemical
One assay addresses PKC γ (Homo sapiens, UniProt P05129). Put plainly: Protein Kinase C Histone-Based Assay, γ isoform. To be noted: histone III substrate, 30 μM ATP, 10 min at 30° C.; read-out: PKC Activity (IC50 μM, Histone Based Assay) Gamma. The method, then:
(§1) Compounds were evaluated for PKC selectivity using histone III as the substrate. […] The reaction was incubated for 10 min at 30° C. Reactions were terminated by TCA precipitation and spotting on Whatman P81 filters. Filters were washed in 75 mM phosphoric acid and the radioactivity quantified by liquid scintillation counting.

The next assay concerns the target PKC α (Homo sapiens, UniProt P17252). As to the kind of experiment: Protein Kinase C Histone-Based Assay, α isoform. To be noted: histone III substrate, 30 μM ATP, 10 min at 30° C.; read-out: PKC Activity (IC50 μM, Histone Based Assay) Alpha. On the procedure: as §1
The target of assay [1] is T1, recombinant rabbit GSK-3β protein (Oryctolagus cuniculus, UniProt G1T8E2).
T1 construct: purchased New England Biolabs
Put plainly: Glycogen Synthase Kinase-3 Assay. To be noted: PPI-2 substrate, 33P-ATP, 90 minutes at 30° C. On the procedure:
Compounds were tested for the ability to inhibit recombinant rabbit GSK-3β protein using the following protocol. The test compound was added to a reaction mixture containing Protein phosphatase inhibitor-2 (PPI-2) (Calbiochem) (45 ng), rabbit GSK-3β protein (New England Biolabs) (0.75 units) and ^33P-ATP (1 μCi) in 50 mM Tris-HCl (pH 8.0), 10 mM MgCl2, 0.1% BSA, 1 mM DTT and 100 μM Sodium Vanadate. The mixture was reacted for 90 minutes at 30° C. to allow phosphorylation of the PPI-2 protein and then the protein in the reaction was precipitated using 10% TCA. The precipitated protein was collected on filter plates (MultiScreen-DV/Millipore), which were subsequently washed. Finally, the radioactivity was quantified using a TopCount Scintillation Counter (Packard).

Another assay addresses PKC β-II (Homo sapiens, UniProt P05771). Put plainly: Protein Kinase C Histone-Based Assay, β-II isoform. To be noted: histone III substrate, 30 μM ATP, 10 min at 30° C.; read-out: PKC Activity (IC50 μM, Histone Based Assay) Beta II. The method, then:
as §1

T1 sequence (G1T8E2 1-432): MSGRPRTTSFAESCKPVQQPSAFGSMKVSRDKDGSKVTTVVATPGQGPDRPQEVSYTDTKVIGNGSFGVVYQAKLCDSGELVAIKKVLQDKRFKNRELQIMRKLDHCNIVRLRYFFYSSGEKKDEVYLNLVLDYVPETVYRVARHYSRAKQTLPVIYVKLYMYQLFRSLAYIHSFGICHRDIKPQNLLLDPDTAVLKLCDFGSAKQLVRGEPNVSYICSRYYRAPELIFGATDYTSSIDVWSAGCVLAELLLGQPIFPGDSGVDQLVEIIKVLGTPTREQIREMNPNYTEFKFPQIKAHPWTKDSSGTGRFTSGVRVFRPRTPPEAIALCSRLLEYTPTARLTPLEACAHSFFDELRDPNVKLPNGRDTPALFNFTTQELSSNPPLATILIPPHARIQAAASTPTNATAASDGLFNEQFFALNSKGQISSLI
Chain of PKC β-II (P05771 1-673 isoform P05771-2): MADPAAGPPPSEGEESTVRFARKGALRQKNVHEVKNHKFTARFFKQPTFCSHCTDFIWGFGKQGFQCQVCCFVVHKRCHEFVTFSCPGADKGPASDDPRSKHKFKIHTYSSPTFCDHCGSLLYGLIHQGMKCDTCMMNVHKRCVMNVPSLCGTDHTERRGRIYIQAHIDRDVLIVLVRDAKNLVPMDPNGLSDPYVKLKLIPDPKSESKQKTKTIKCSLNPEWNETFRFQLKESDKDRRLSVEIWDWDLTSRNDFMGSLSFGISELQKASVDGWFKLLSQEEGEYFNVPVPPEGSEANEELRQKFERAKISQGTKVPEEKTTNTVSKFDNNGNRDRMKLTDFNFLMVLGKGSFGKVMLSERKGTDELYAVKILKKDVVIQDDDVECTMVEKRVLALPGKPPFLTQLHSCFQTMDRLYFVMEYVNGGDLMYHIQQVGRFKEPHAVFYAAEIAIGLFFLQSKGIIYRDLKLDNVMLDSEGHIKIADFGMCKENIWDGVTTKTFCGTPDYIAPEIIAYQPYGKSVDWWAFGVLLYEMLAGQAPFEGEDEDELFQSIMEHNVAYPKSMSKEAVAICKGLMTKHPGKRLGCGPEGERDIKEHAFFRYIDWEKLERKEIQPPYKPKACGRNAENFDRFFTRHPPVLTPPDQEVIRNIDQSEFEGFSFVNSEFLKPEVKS

One may read the IC50 as the concentration that inhibits the measured activity by half. As to “3-(1-ethyl-1H-indol-3-yl)-4-[1-[3-(4-morpholinyl)propyl]-1H-indazol-3-yl]-1H-pyrrole-2,5-dione [Compound 69]”, the IC50 was 0.55 µM at PKC γ, 0.25 µM on PKC α, 0.018 µM in assay [1] and 0.014 µM on PKC β-II.
`C=Cn1cc(C2=C(c3nn(CC(O)CN(C)C)c4ccccc34)C(=O)NC2=O)c2ccccc21` (centres unmarked) [Compound 1, 3-[1-[3-(dimethylamino)-2-hydroxypropyl]-1H-indazol-3-yl]-4-(1-ethenyl-1H-indol-3-yl)-1H-pyrrole-2,5-dione]: the IC50 on PKC γ was 0.058 µM; at PKC α, 0.052 µM; in assay [1] it was 0.09 µM; on PKC β-II it was 0.014 µM.
In the case of `C=Cn1cc(C2=C(c3nn(CCCN(C)C)c4ccccc34)C(=O)NC2=O)c2ccccc21` [Compound 3, 3-[1-[3-(dimethylamino)propyl]-1H-indazol-3-yl]-4-(1-ethenyl-1H-indol-3-yl)-1H-pyrrole-2,5-dione], the IC50 on PKC γ stood at 0.323 µM; at PKC α, 0.248 µM; in assay [1] it was 0.049 µM; on PKC β-II, 0.023 µM.
In the case of `C=Cn1cc(C2=C(c3nn(CC(O)CN(C)C)c4ccc(Cl)cc34)C(=O)NC2=O)c2ccccc21` (centres unmarked) [Compound 4, 3-[5-chloro-1-[3-(dimethylamino)-2-hydroxypropyl]-1H-indazol-3-yl]-4-(1-ethenyl-1H-indol-3-yl)-1H-pyrrole-2,5-dione], the IC50 in assay [1] came to 0.27 µM.
On to `C=Cn1cc(C2=C(c3nn(CCCN(C)C)c4ccccc34)C(=O)NC2=O)c2cc(Cl)ccc21` [Compound 6, 3-(5-chloro-1-ethenyl-1H-indol-3-yl)-4-[1-[3-(dimethylamino)propyl]-1H-indazol-3-yl]-1H-pyrrole-2,5-dione], for which the IC50 on PKC γ worked out at 0.129 µM; at PKC α, 0.105 µM; in assay [1], 0.048 µM; on PKC β-II, 0.013 µM.
As to `CN(C)CCCn1nc(C2=C(c3cn(-c4ccncc4)c4ccccc34)C(=O)NC2=O)c2ccccc21` [Compound 32, 3-[1-[3-(dimethylamino)propyl]-1H-indazol-3-yl]-4-[1-(4-pyridinyl)-1H-indol-3-yl]-1H-pyrrole-2,5-dione], in assay [1], the IC50 was determined as 0.51 µM.
For `CN(C)CCCn1nc(C2=C(c3cn(-c4cccs4)c4ccc(Cl)cc34)C(=O)NC2=O)c2ccccc21` [Compound 33, 3-[5-chloro-1-(2-thienyl)-1H-indol-3-yl]-4-[1-[3-(dimethylamino)propyl]-1H-indazol-3-yl]-1H-pyrrole-2,5-dione], the IC50 in assay [1] stood at 0.07 µM.
Take `CN(C)CCCn1nc(C2=C(c3cn(C)c4ccc(Cl)cc34)C(=O)NC2=O)c2ccccc21` [Compound 43, 3-(5-chloro-1-methyl-1H-indol-3-yl)-4-[1-[3-(dimethylamino)propyl]-1H-indazol-3-yl]-1H-pyrrole-2,5-dione]: in assay [1], the IC50 came out at 0.034 µM.
As to `CCn1cc(C2=C(c3nn(CCCN(C)C)c4ccccc34)C(=O)NC2=O)c2cc(Cl)ccc21` [Compound 46, 3-(5-chloro-1-ethyl-1H-indol-3-yl)-4-[1-[3-(dimethylamino)propyl]-1H-indazol-3-yl]-1H-pyrrole-2,5-dione], the IC50 is 0.123 µM on PKC γ, 0.308 µM at PKC α, 0.01 µM in assay [1] and 0.005 µM on PKC β-II.
As for `CN(C)CCCn1nc(C2=C(c3cn(-c4ccccc4)c4ccc(Cl)cc34)C(=O)NC2=O)c2ccccc21` [Compound 48, 3-(5-chloro-1-phenyl-1H-indol-3-yl)-4-[1-[3-(dimethylamino)propyl]-1H-indazol-3-yl]-1H-pyrrole-2,5-dione], in assay [1], the IC50 was 0.09 µM.
On to `Cn1cc(C2=C(c3nn(CCCO)c4ccccc34)C(=O)NC2=O)c2cc(Cl)ccc21` [Compound 74, 3-(5-chloro-1-methyl-1H-indol-3-yl)-4-[1-(3-hydroxypropyl)-1H-indazol-3-yl]-1H-pyrrole-2,5-dione], for which the IC50 in assay [1] came to 0.014 µM.
Consider `CC(=O)OCCCn1nc(C2=C(c3cn(C)c4ccc(Cl)cc34)C(=O)NC2=O)c2ccccc21` [Compound 76, 3-[1-[3-(acetyloxy)propyl]-1H-indazol-3-yl]-4-(5-chloro-1-methyl-1H-indol-3-yl)-1H-pyrrole-2,5-dione], for which the IC50 in assay [1] was found to be 0.085 µM.
`CCn1nc(C2=C(c3cn(CCCN4CCOCC4)c4ccccc34)C(=O)NC2=O)c2cc(Cl)ccc21` [Compound 86, 3-(5-chloro-1-ethyl-1H-indazol-3-yl)-4-[1-[3-(4-morpholinyl)propyl]-1H-indol-3-yl]-1H-pyrrole-2,5-dione]: the IC50 in assay [1] turned out to be 0.13 µM.
With `CCn1cc(C2=C(c3nn(CCCN(C)C)c4ccccc34)C(=O)NC2=O)c2ccc(Cl)cc21` [Compound 90, 3-(6-chloro-1-ethyl-1H-indol-3-yl)-4-[1-[3-(dimethylamino)propyl]-1H-indazol-3-yl]-1H-pyrrole-2,5-dione], the IC50 in assay [1] amounted to 0.096 µM.
For the molecule `CCn1cc(C2=C(c3nn(CCCN(C)C)c4ccccc34)C(=O)NC2=O)c2cccc(Cl)c21` [Compound 95, 3-(7-chloro-1-ethyl-1H-indol-3-yl)-4-[1-[3-(dimethylamino)propyl]-1H-indazol-3-yl]-1H-pyrrole-2,5-dione], the IC50 in assay [1] was 0.06 µM.
Regarding `CCn1cc(C2=C(c3nn(CCCN(C)C)c4ccccc34)C(=O)NC2=O)c2cc(C#N)ccc21` [Compound 98, 3-[4-[1-[3-(dimethylamino)propyl]-1H-indazol-3-yl]-2,5-dihydro-2,5-dioxo-1H-pyrrol-3-yl]-1-ethyl-1H-indole-5-carbonitrile], the IC50 in assay [1] is 0.015 µM.
Consider `O=C1NC(=O)C(c2nn(CCCO)c3ccccc23)=C1c1cn(-c2ccccn2)c2ccccc12` [Compound 102, 3-[1-(3-hydroxypropyl)-1H-indazol-3-yl]-4-[1-(2-pyridinyl)-1H-indol-3-yl]-1H-pyrrole-2,5-dione], for which the IC50 in assay [1] worked out at 0.21 µM.
The same measure, in the same setting: to `O=C1NC(=O)C(c2nn(CCCO)c3ccccc23)=C1c1cn(-c2cncc3ccccc23)c2ccccc12` [Compound 105, 3-[1-(3-hydroxypropyl)-1H-indazol-3-yl]-4-[1-(4-isoquinolinyl)-1H-indol-3-yl]-1H-pyrrole-2,5-dione] belongs 0.073 µM.
In the case of `O=C1NC(=O)C(c2nn(CCOCCO)c3ccccc23)=C1c1cn(-c2cccnc2)c2ccccc12` [Compound 106, 3-[1-[2-(2-hydroxyethoxy)ethyl]-1H-indazol-3-yl]-4-[1-(3-pyridinyl)-1H-indol-3-yl]-1H-pyrrole-2,5-dione], in assay [1], the 50% inhibitory concentration (IC50) turned out to be 0.033 µM.
With `NCCCn1nc(C2=C(c3cn(-c4cccnc4)c4ccccc34)C(=O)NC2=O)c2ccccc21` [Compound 109, 3-[1-(3-aminopropyl)-1H-indazol-3-yl]-4-[1-(3-pyridinyl)-1H-indol-3-yl]-1H-pyrrole-2,5-dione], the IC50 came to 0.231 µM at PKC γ, 0.032 µM at PKC α and 0.005 µM on PKC β-II.
Take `O=C1NC(=O)C(c2nn(CCO)c3ccccc23)=C1c1cn(-c2cccnc2)c2ccccc12` [Compound 110, 3-[1-(2-hydroxyethyl)-1H-indazol-3-yl]-4-[1-(3-pyridinyl)-1H-indol-3-yl]-1H-pyrrole-2,5-dione]: in assay [1], the IC50 came to 0.075 µM.
As for `O=C1NC(=O)C(c2nn(CCCCO)c3ccccc23)=C1c1cn(-c2cccnc2)c2ccccc12` [Compound 111, 3-[1-(4-hydroxybutyl)-1H-indazol-3-yl]-4-[1-(3-pyridinyl)-1H-indol-3-yl]-1H-pyrrole-2,5-dione], the IC50 in assay [1] stood at 0.04 µM.
With `O=CCCn1nc(C2=C(c3cn(-c4cccnc4)c4ccccc34)C(=O)NC2=O)c2ccccc21` [Compound 112, 1H-indazole-1-propanal, 3-[2,5-dihydro-2,5-dioxo-4-[1-(3-pyridinyl)-1H-indol-3-yl]-1H-pyrrol-3-yl]-1H-pyrrole-2,5-dione], in assay [1], the IC50 amounted to 0.115 µM.
Regarding `CC(C)(C)OC(=O)NCCCn1nc(C2=C(c3cn(-c4cccnc4)c4ccccc34)C(=O)NC2=O)c2ccccc21` [Compound 115, [3-[3-[2,5-dihydro-2,5-dioxo-4-[1-(3-pyridinyl)-1H-indol-3-yl]-1H-pyrrol-3-yl]-1H-indazol-1-yl]propyl]-carbamic acid 1,1-dimethylethyl ester], the IC50 in assay [1] was 0.055 µM.
For `COCCCn1nc(C2=C(c3cn(-c4cccnc4)c4ccccc34)C(=O)NC2=O)c2ccccc21` [Compound 117, 3-[1-(3-methoxypropyl)-1H-indazol-3-yl]-4-[1-(3-pyridinyl)-1H-indol-3-yl]-1H-pyrrole-2,5-dione], the IC50 in assay [1] amounted to 0.07 µM; on PKC β-II, 0.034 µM.
Regarding `O=C1NC(=O)C(c2cn(-c3cccnc3)c3ccccc23)=C1c1[nH]nc2ccccc12` [Compound 118, 3-(1H-indazol-3-yl)-4-[1-(3-pyridinyl)-1H-indol-3-yl]-1H-pyrrole-2,5-dione], the IC50 in assay [1] worked out at 0.2 µM.
